Earlier results as cited in publication PMC8176454, “Synthesis and Assessment of Novel Probes for Imaging Tau Pathology in Transgenic Mouse and Rat Models” (ACS Chemical Neuroscience, 2021).

What was measured:
[1] = test system: tau pathology in PS19 tau transgenic mice; design: method as in PMID 24050400; conditions: cited from earlier work
[2] = test system: tau aggregates in P301S tau and GSK3-β X P301L tau (biGT) mice; design: method as in PMID 26912432; conditions: cited from earlier work

Compound	Binding to tau pathology in PS19 tau transgenic mice [1]	Binding to tau aggregates in two transgenic mouse models [2]
[11CH3]Nc1ccc(/C=C/C=C/c2nc3ccc(O)cc3s2)cn1 [[^11C]PBB3]	bind to tau pathology	
CNc1ccc(-c2ccc3cc(OCC(O)C[18F])ccc3n2)cc1 (centres unmarked) [[^18F]THK5117]		bound to tau aggregates
